Data reported in ChEMBL document CHEMBL1201862, “PubChem BioAssay data set” (2004).
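Method: 48-hour compound exposure of cells in 96-well plates, five concentrations, linear interpolation of endpoints. GI50 is the concentration that inhibits growth by half.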 The source made the active and inactive calls. Rule as the data show it: active = GI50 up to about 1.1 µM and inactive = higher.

Columns and labels:
Test in all cases: inhibition of tumour cell growth, NCI panel, 48 h
NCI-H226 = tested on: NCI-H226
SF-539 = tested on: SF-539
UACC-257 = tested on: UACC-257
SK-OV-3 = tested on: SK-OV-3
M14 = tested on: M14
HCT-116 = tested on: HCT-116
SF-295 = tested on: SF-295
KM12 = tested on: KM12
OVCAR-3 = tested on: OVCAR-3
HT-29 = tested on: HT-29
SW-620 = tested on: SW-620
UACC-62 = tested on: UACC-62
RXF 393 = tested on: RXF 393
SNB-75 = tested on: SNB-75
A498 = tested on: A498
PC-3 = tested on: PC-3
EKVX = tested on: EKVX
SK-MEL-28 = tested on: SK-MEL-28
CCRF-CEM = tested on: CCRF-CEM
HL-60 = tested on: HL-60

| SMILES | GI50 (NCI-H226) | GI50 (SF-539) | GI50 (UACC-257) | GI50 (SK-OV-3) | GI50 (M14) | GI50 (HCT-116) | GI50 (SF-295) | GI50 (KM12) | GI50 (OVCAR-3) | GI50 (HT-29) | GI50 (SW-620) | GI50 (UACC-62) | GI50 (RXF 393) | GI50 (SNB-75) | GI50 (A498) | GI50 (PC-3) | GI50 (EKVX) | GI50 (SK-MEL-28) | GI50 (CCRF-CEM) | GI50 (HL-60) |
| --- | --- | --- | --- | --- | --- | --- | --- | --- | --- | --- | --- | --- | --- | --- | --- | --- | --- | --- | --- | --- |
| Cc1cc(C)nc(NC(=O)COc2ccc(Cl)cc2)c1 | > 100 µM (inactive) | > 100 µM (inactive) | > 100 µM (inactive) | > 100 µM (inactive) | > 100 µM (inactive) | > 100 µM (inactive) | 84.9 µM (inactive) | > 100 µM (inactive) | > 100 µM (inactive) | > 100 µM (inactive) | > 100 µM (inactive) | > 100 µM (inactive) | 71.8 µM (inactive) | > 100 µM (inactive) | > 100 µM (inactive) | > 100 µM (inactive) | > 100 µM (inactive) | > 100 µM (inactive) | – | – |
| N#Cc1c(N)n(C2OC(CO)C(O)C2O)c2ncnc(N)c12 (configuration not stated) | 0.0684 µM (active) | 0.118 µM (active) | 0.091 µM (active) | 0.0649 µM (active) | 0.0617 µM (active) | 0.0195 µM (active) | 0.0711 µM (active) | 0.0417 µM (active) | 0.029 µM (active) | 0.0288 µM (active) | 0.0228 µM (active) | 0.0168 µM (active) | 0.153 µM (active) | 0.0798 µM (active) | 0.175 µM (active) | 0.0245 µM (active) | 0.135 µM (active) | 0.119 µM (active) | 0.025 µM (active) | – |
| COc1ccc(C[C@@H]2CN(C(=O)c3ccccc3)[C@H](Cc3ccc(O)cc3)CN2C(=O)c2ccccc2)cc1Br | > 100 µM (inactive) | > 100 µM (inactive) | > 100 µM (inactive) | > 100 µM (inactive) | > 100 µM (inactive) | > 100 µM (inactive) | > 100 µM (inactive) | > 100 µM (inactive) | > 100 µM (inactive) | > 100 µM (inactive) | > 100 µM (inactive) | – | – | > 100 µM (inactive) | > 100 µM (inactive) | 55.2 µM (inactive) | > 100 µM (inactive) | > 100 µM (inactive) | > 100 µM (inactive) | > 100 µM (inactive) |
| COC(=O)CNC(=O)/C=C/[C@H](O[Si](C)(C)C(C)(C)C)[C@H](/C=C/C(=O)NCC(=O)OC)O[Si](C)(C)C(C)(C)C | > 25 µM (inactive) | > 25 µM (inactive) | > 25 µM (inactive) | > 25 µM (inactive) | – | > 25 µM (inactive) | > 25 µM (inactive) | > 25 µM (inactive) | > 25 µM (inactive) | > 25 µM (inactive) | > 25 µM (inactive) | > 25 µM (inactive) | > 25 µM (inactive) | > 25 µM (inactive) | > 25 µM (inactive) | > 25 µM (inactive) | > 25 µM (inactive) | > 25 µM (inactive) | > 25 µM (inactive) | – |
| C=CC(C)(C)C(=C)C(=O)N(C)c1ccccc1I | 95.7 µM (inactive) | – | > 100 µM (inactive) | > 100 µM (inactive) | > 100 µM (inactive) | 84.9 µM (inactive) | > 100 µM (inactive) | > 100 µM (inactive) | > 100 µM (inactive) | > 100 µM (inactive) | > 100 µM (inactive) | > 100 µM (inactive) | > 100 µM (inactive) | > 100 µM (inactive) | > 100 µM (inactive) | > 100 µM (inactive) | > 100 µM (inactive) | > 100 µM (inactive) | > 100 µM (inactive) | – |
| CC1=CC(c2ccccc2)OP1(=O)c1ccccc1 (configuration not stated) | > 100 µM (inactive) | > 100 µM (inactive) | > 100 µM (inactive) | > 100 µM (inactive) | > 100 µM (inactive) | > 100 µM (inactive) | > 100 µM (inactive) | > 100 µM (inactive) | > 100 µM (inactive) | > 100 µM (inactive) | > 100 µM (inactive) | > 100 µM (inactive) | – | > 100 µM (inactive) | > 100 µM (inactive) | > 100 µM (inactive) | > 100 µM (inactive) | > 100 µM (inactive) | – | > 100 µM (inactive) |
| Cc1cc2c3c([nH]c2c2ccnc(C)c12)CCCC3 | 12.1 µM (inactive) | 1.85 µM (inactive) | 1.81 µM (inactive) | 1.85 µM (inactive) | 1.9 µM (inactive) | 1.82 µM (inactive) | 2.12 µM (inactive) | 2.7 µM (inactive) | 2.14 µM (inactive) | 2.46 µM (inactive) | 1.91 µM (inactive) | 1.77 µM (inactive) | – | 1.87 µM (inactive) | – | 3.78 µM (inactive) | 2.07 µM (inactive) | 1.76 µM (inactive) | 2.5 µM (inactive) | 1.69 µM (inactive) |
